The source made the active and inactive calls. No cut-off for these calls is given here.
Legend:
[1] = Inhibition of Erythrina variegata agglutinin-mediated hemagglutinination of rabbit erythrocytes
[2] = tested on: Triticum aestivum; test: Binding affinity to wheat-germ agglutinin assessed as precipitation by UV detection based precipitation analysis
[3] = tested on: Erythrina variegata; test: Binding affinity to Erythrina variegata agglutinin assessed as precipitation by UV detection based precipitation analysis
[4] = tested on: Triticum aestivum; test: Binding affinity to wheat-germ agglutinin assessed as precipiting bands by double diffusion test
[5] = tested on: Erythrina variegata; test: Binding affinity to Erythrina variegata agglutinin assessed as precipiting bands by double diffusion test
[6] = Inhibition of wheat-germ agglutinin-mediated hemagglutinination of rabbit erythrocytes; design: species or system Triticum aestivum
[7] = tested on: Triticum aestivum; test: Binding affinity to wheat-germ agglutinin assessed as increase in response units by surface plasmon resonance

Structure (SMILES)	IC50 [1] [µM]	Activity [2]	Activity [3]	Activity [4]	Activity [5]	IC50 [6] [µM]	Activity [7]
CC(=O)N[C@H]1[C@H](O[C@H]2[C@H](O)[C@@H](NC(C)=O)C(O)O[C@@H]2CO)O[C@H](CO)[C@@H](O)[C@@H]1O (stereo not given in full)	–	–	–	–	–	750	–
CC(=O)N[C@@H]1[C@@H](O)[C@H](O)[C@@H](CO)O[C@H]1NC(=O)CN(CCOCCOCCN(CC(=O)N[C@@H]1O[C@H](CO)[C@@H](O)[C@H](O)[C@H]1NC(C)=O)CC(=O)N[C@@H]1O[C@H](CO)[C@@H](O)[C@H](O)[C@H]1NC(C)=O)CC(=O)N[C@@H]1O[C@H](CO)[C@@H](O)[C@H](O)[C@H]1NC(C)=O	–	–	inactive	inactive	–	> 4000	Dose-dependent effect
CC(=O)N[C@@H]1[C@@H](O)[C@H](O[C@@H]2O[C@H](CO)[C@H](O)[C@H](O)[C@H]2O)[C@@H](CO)O[C@H]1NC(=O)CCCCCC(=O)N[C@@H]1O[C@H](CO)[C@@H](O[C@@H]2O[C@H](CO)[C@H](O)[C@H](O)[C@H]2O)[C@H](O)[C@H]1NC(C)=O	47	–	–	–	–	–	–
CC(=O)N[C@@H]1[C@@H](O)[C@H](O[C@@H]2O[C@H](CO)[C@@H](O)[C@H](O)[C@H]2NC(C)=O)[C@@H](CO)O[C@H]1NC(=O)CN(CCOCCOCCN(CC(=O)N[C@@H]1O[C@H](CO)[C@@H](O[C@@H]2O[C@H](CO)[C@@H](O)[C@H](O)[C@H]2NC(C)=O)[C@H](O)[C@H]1NC(C)=O)CC(=O)N[C@@H]1O[C@H](CO)[C@@H](O[C@@H]2O[C@H](CO)[C@@H](O)[C@H](O)[C@H]2NC(C)=O)[C@H](O)[C@H]1NC(C)=O)CC(=O)N[C@@H]1O[C@H](CO)[C@@H](O[C@@H]2O[C@H](CO)[C@@H](O)[C@H](O)[C@H]2NC(C)=O)[C@H](O)[C@H]1NC(C)=O	–	–	inactive	Active	–	5.86	Dose-dependent effect
CC(=O)N[C@@H]1[C@@H](O)[C@H](O[C@@H]2O[C@H](CO)[C@H](O)[C@H](O)[C@H]2O)[C@@H](CO)O[C@H]1O	94	–	–	–	–	–	–
CC(=O)N[C@@H]1[C@@H](O)[C@H](O)[C@@H](CO)O[C@H]1NC(=O)CCCCCNC(=O)CN(CCOCCOCCN(CC(=O)NCCCCCC(=O)N[C@@H]1O[C@H](CO)[C@@H](O)[C@H](O)[C@H]1NC(C)=O)CC(=O)NCCCCCC(=O)N[C@@H]1O[C@H](CO)[C@@H](O)[C@H](O)[C@H]1NC(C)=O)CC(=O)NCCCCCC(=O)N[C@@H]1O[C@H](CO)[C@@H](O)[C@H](O)[C@H]1NC(C)=O	–	–	inactive	Active	–	46.9	Dose-dependent effect

Further lines, results first:

IC50 [1] [µM]	Activity [2]	Activity [3]	Activity [4]	Activity [5]	IC50 [6] [µM]	Activity [7]	Structure (SMILES)
5.9	inactive	Active	inactive	Active	–	–	CC(=O)N[C@@H]1[C@@H](O)[C@H](O[C@@H]2O[C@H](CO)[C@H](O)[C@H](O)[C@H]2O)[C@@H](CO)O[C@H]1NC(=O)CCCCCNC(=O)CN(CCOCCOCCN(CC(=O)NCCCCCC(=O)N[C@@H]1O[C@H](CO)[C@@H](O[C@@H]2O[C@H](CO)[C@H](O)[C@H](O)[C@H]2O)[C@H](O)[C@H]1NC(C)=O)CC(=O)NCCCCCC(=O)N[C@@H]1O[C@H](CO)[C@@H](O[C@@H]2O[C@H](CO)[C@H](O)[C@H](O)[C@H]2O)[C@H](O)[C@H]1NC(C)=O)CC(=O)NCCCCCC(=O)N[C@@H]1O[C@H](CO)[C@@H](O[C@@H]2O[C@H](CO)[C@H](O)[C@H](O)[C@H]2O)[C@H](O)[C@H]1NC(C)=O
1.2	inactive	Active	inactive	Active	> 4000	–	CC(=O)N[C@@H]1[C@@H](O)[C@H](O[C@@H]2O[C@H](CO)[C@H](O)[C@H](O)[C@H]2O)[C@@H](CO)O[C@H]1NC(=O)CN(CCOCCOCCN(CC(=O)N[C@@H]1O[C@H](CO)[C@@H](O[C@@H]2O[C@H](CO)[C@H](O)[C@H](O)[C@H]2O)[C@H](O)[C@H]1NC(C)=O)CC(=O)N[C@@H]1O[C@H](CO)[C@@H](O[C@@H]2O[C@H](CO)[C@H](O)[C@H](O)[C@H]2O)[C@H](O)[C@H]1NC(C)=O)CC(=O)N[C@@H]1O[C@H](CO)[C@@H](O[C@@H]2O[C@H](CO)[C@H](O)[C@H](O)[C@H]2O)[C@H](O)[C@H]1NC(C)=O
–	–	inactive	Active	–	0.18	Dose-dependent effect	CC(=O)N[C@@H]1[C@@H](O)[C@H](O[C@@H]2O[C@H](CO)[C@@H](O)[C@H](O)[C@H]2NC(C)=O)[C@@H](CO)O[C@H]1NC(=O)CCCCCNC(=O)CN(CCOCCOCCN(CC(=O)NCCCCCC(=O)N[C@@H]1O[C@H](CO)[C@@H](O[C@@H]2O[C@H](CO)[C@@H](O)[C@H](O)[C@H]2NC(C)=O)[C@H](O)[C@H]1NC(C)=O)CC(=O)NCCCCCC(=O)N[C@@H]1O[C@H](CO)[C@@H](O[C@@H]2O[C@H](CO)[C@@H](O)[C@H](O)[C@H]2NC(C)=O)[C@H](O)[C@H]1NC(C)=O)CC(=O)NCCCCCC(=O)N[C@@H]1O[C@H](CO)[C@@H](O[C@@H]2O[C@H](CO)[C@@H](O)[C@H](O)[C@H]2NC(C)=O)[C@H](O)[C@H]1NC(C)=O

From ChEMBL document CHEMBL1159123, “Molecular design of N-linked tetravalent glycosides bearing N-acetylglucosamine, N,N'-diacetylchitobiose and N-acetyllactosamine: Analysis of cross-linking activities with WGA and ECA lectins” (Bioorg Med Chem, 2010)
